Experiment [1] has as its system ovarian cancer cells (PA-1). Nature of the experiment: Cancer cell line growth inhibition (SRB assay). The experiment is classed as cell-based. The following applies: read-out: Cancer Cell Line GI50 Range PA-1.
Experiment [2] relates to colon cancer cells (HCT116). Nature of the experiment: Cancer cell line growth inhibition (SRB assay). Type of experiment: cell-based. The conditions noted are these: Homo sapiens, HCT-116, read-out: Cancer Cell Line GI50 Range HCT116.
The mark [3] stands for this setting: PA-1 ovarian cancer cells, SRB assay.
[4] abbreviates: HCT116 colon cancer cells, SRB assay.

Where two headings read alike, the source gives them in different places.

Data on 28 compounds can be found in US9580390B2, “Indazole compounds as kinase inhibitors and method of treating cancer with same” (University Health Network, priority 2011, dated 2017).

Take `O=C(Nc1ccc2[nH]nc(-c3ccc(N4CCC(O)CC4)cc3)c2c1)C(c1ccsc1)N1CCCCC1` (centres unmarked) [Example A83, N-(3-(4-(4-hydroxypiperidin-1-yl)phenyl)-1H-indazol-5-yl)-2-(piperidin-1-yl)-2-(thiophen-3-yl)acetamide]: the values for the GI50 in experiment [1] (setting [3]) and in experiment [2] (setting [4]) were 100 to 500 nM and below 100 nM, respectively.
Turning to `COCCN1CCC(Oc2ccc(-c3n[nH]c4ccc(NC(=O)[C@H](OC)c5ccccc5)cc34)cc2)CC1` [Example A107, (R)-2-methoxy-N-(3-(4-((1-(2-methoxyethyl)piperidin-4-yl)oxy)phenyl)-1H-indazol-5-yl)-2-phenylacetamide], the GI50 in experiment [1] (setting [3]) and in experiment [2] (setting [4]) was 100 to 500 nM in each case.
Regarding `O=C(NC(c1ccsc1)C1CCC1)c1ccc2[nH]nc(-c3ccc(N4CCOCC4)cc3)c2c1` (centres unmarked) [Example A123, N-(cyclobutyl(thiophen-3-yl)methyl)-3-(4-morpholinophenyl)-1H-indazole-5-carboxamide], the values for the GI50 in experiment [1] (setting [3]) and in experiment [2] (setting [4]) were below 100 nM and 100 to 500 nM, respectively.
Taken in the same sequence, the figures for `COCCN1CCC(Oc2ccc(-c3n[nH]c4ccc(C(=O)NC(c5ccccc5)C5CCCC5)cc34)cc2)CC1` (centres unmarked) [Example A161, N-(cyclopentyl(phenyl)methyl)-3-(4-((1-(2-methoxyethyl)piperidin-4-yl)oxy)phenyl)-1H-indazole-5-carboxamide] were 100 to 500 nM and 100 to 500 nM.
Taken in the same sequence, the figures for `CO[C@@H](C(=O)Nc1ccc2[nH]nc(-c3ccc(OCC4CCN(C)CC4)cc3)c2c1)c1ccccc1` [Example A145, (R)-2-methoxy-N-(3-(4-((1-methylpiperidin-4-yl)methoxy)phenyl)-1H-indazol-5-yl)-2-phenylacetamide] were 100 to 500 nM and 100 to 500 nM.
Taken in the same sequence, the figures for `CN1CCC(Oc2ccc(-c3n[nH]c4ccc(NC(=O)C5OCCc6ccccc65)cc34)cc2)CC1` (centres unmarked) [Example A146, N-(3-(4-(1-Methylpiperidin-4-yloxy)phenyl)-1H-indazol-5-yl)isochroman-1-carboxamide] were 100 to 500 nM and above 500 nM.
On to `O=CN1CCC(Oc2ccc(-c3n[nH]c4ccc(C(=O)N[C@@H](c5ncccc5Cl)C5CC5)cc34)cc2)CC1` [Example A211, (R)-N-((3-chloropyridin-2-yl)(cyclopropyl)methyl)-3-(4-((1-formylpiperidin-4-yl)oxy)phenyl)-1H-indazole-5-carboxamide], for which the GI50 was in the range of 100 to 500 nM in experiment [1] (Homo sapiens, PA-1) and 100 to 500 nM in experiment [2].
On to `O=C(Nc1ccc2[nH]nc(-c3ccc(N4CCOCC4)cc3)c2c1)C(c1cccs1)N1CCCC1` (centres unmarked) [Example A82, N-(3-(4-morpholinophenyl)-1H-indazol-5-yl)-2-(pyrrolidin-1-yl)-2-(thiophen-2-yl)acetamide], for which the GI50 in experiment [1] (setting [3]) and in experiment [2] (setting [4]) was below 100 nM throughout.
On to `O=C(NC(c1ccccn1)C1CC1)c1ccc2[nH]nc(-c3ccc(OC4CN(C5COC5)C4)cc3)c2c1` (centres unmarked) [Example A209, N-(cyclopropyl(pyridin-2-yl)methyl)-3-(4-((1-(oxetan-3-yl)azetidin-3-yl)oxy)phenyl)-1H-indazole-5-carboxamide], for which the GI50 in experiment [1] (setting [3]) and in experiment [2] (setting [4]) was 100 to 500 nM throughout.
On to `O=C(NC(c1ccccc1)C1CCC1)c1ccc2[nH]nc(-c3ccc(N4CCC(O)CC4)cc3)c2c1` (centres unmarked) [Example A100, N-(cyclobutyl(phenyl)methyl)-3-(4-(4-hydroxypiperidin-1-yl)phenyl)-1H-indazole-5-carboxamide], for which the GI50 in experiment [1] (setting [3]) and in experiment [2] (setting [4]) was below 100 nM each time.
Take `CC(C)(O)C1CCN(c2ccc(-c3n[nH]c4ccc(NC(=O)C(c5ccsc5)N5CCCC5)cc34)cc2)CC1` (centres unmarked) [Example A111, N-(3-(4-(4-(2-hydroxypropan-2-yl)piperidin-1-yl)phenyl)-1H-indazol-5-yl)-2-(pyrrolidin-1-yl)-2-(thiophen-3-yl)acetamide]: the 50% growth inhibitory concentration (GI50) in experiment [1] (setting [3]) and in experiment [2] (setting [4]) was below 100 nM throughout.
As for `O=C(NC(c1ccccc1)C1CC1)c1ccc2[nH]nc(-c3ccc(OC4CCN(CCF)CC4)cc3)c2c1` (centres unmarked) [Example A122, N-(cyclopropyl(phenyl)methyl)-3-(4-((1-(2-fluoroethyl)piperidin-4-yl)oxy)phenyl)-1H-indazole-5-carboxamide], the GI50 in experiment [1] (setting [3]) and in experiment [2] (setting [4]) was 100 to 500 nM throughout.
For the compound `CN1CCC(Oc2ccc(-c3n[nH]c4ccc(C(=O)NCc5ccccc5CO)cc34)cc2)CC1` [Example A142, N-(2-(hydroxymethyl)benzyl)-3-(4-((1-methylpiperidin-4-yl)oxy)phenyl)-1H-indazole-5-carboxamide], the results for the GI50 in experiment [1] (setting [3]) and in experiment [2] (setting [4]) were above 500 nM and 100 to 500 nM, respectively.
Turning to `CN1CCOc2ccc(-c3n[nH]c4ccc(NC(=O)C(c5ccsc5)N5CCCC5)cc34)cc2C1` (centres unmarked) [Example A90, N-(3-(4-methyl-2,3,4,5-tetrahydrobenzo[f][1,4]oxazepin-7-yl)-1H-indazol-5-yl)-2-(pyrrolidin-1-yl)-2-(thiophen-3-yl)acetamide], the GI50 in experiment [1] (setting [3]) is above 500 nM; in experiment [2] (setting [4]), 100 to 500 nM.
On to `Cc1ccccc1C(NC(=O)c1ccc2[nH]nc(-c3ccc(N4CCOCC4)cc3)c2c1)C1CC1` (centres unmarked) [Example A119, N-(cyclopropyl(o-tolyl)methyl)-3-(4-morpholinophenyl)-1H-indazole-5-carboxamide], for which the GI50 in experiment [1] (setting [3]) and in experiment [2] (setting [4]) was 100 to 500 nM throughout.
For `O=C(NC(c1ccccc1)C1CC1)c1ccc2[nH]nc(-c3ccc(N4CCC(O)CC4)cc3)c2c1` (centres unmarked) [Example A84, N-(cyclopropyl(phenyl)methyl)-3-(4-(4-hydroxypiperidin-1-yl)phenyl)-1H-indazole-5-carboxamide], the GI50 in experiment [1] (setting [3]) is 100 to 500 nM; in experiment [2] (setting [4]), below 100 nM.
Taken in the same sequence, the figures for `CN1CCC(Oc2cccc(-c3n[nH]c4ccc(NC(=O)C(c5ccsc5)N5CCCC5)cc34)c2)CC1` (centres unmarked) [Example A99, N-(3-(3-((1-methylpiperidin-4-yl)oxy)phenyl)-1H-indazol-5-yl)-2-(pyrrolidin-1-yl)-2-(thiophen-3-yl)acetamide] were above 500 nM and above 500 nM.
For `COc1cc(-c2n[nH]c3ccc(C(=O)NC(c4ccccn4)C4CC4)cc23)ccc1OC1CCN(C2COC2)CC1` (centres unmarked) [Example A195, N-(cyclopropyl(pyridin-2-yl)methyl)-3-(3-methoxy-4-((1-(oxetan-3-yl)piperidin-4-yl)oxy)phenyl)-1H-indazole-5-carboxamide], the GI50 in experiment [1] (setting [3]) and in experiment [2] (setting [4]) was 100 to 500 nM in each case.
`O=C(NC(c1ccccc1)C1CC1)c1ccc2[nH]nc(-c3ccc(OC4CCN(CCO)CC4)cc3)c2c1` (centres unmarked) [Example A104, N-(cyclopropyl(phenyl)methyl)-3-(4-((1-(2-hydroxyethyl)piperidin-4-yl)oxy)phenyl)-1H-indazole-5-carboxamide]: the GI50 in experiment [1] (setting [3]) and in experiment [2] (setting [4]) was below 100 nM in each case.
As to `O=CN1CCC(Oc2ccc(-c3n[nH]c4ccc(C(=O)N[C@@H](c5ccccn5)C5CC5)cc34)cc2)CC1` [Example A203, (R)-N-(cyclopropyl(pyridin-2-yl)methyl)-3-(4-((1-formylpiperidin-4-yl)oxy)phenyl)-1H-indazole-5-carboxamide], the concentration for 50% growth inhibition (GI50) in experiment [1] (setting [3]) and in experiment [2] (setting [4]) was 100 to 500 nM in each case.
With `CCc1cccc(CC)c1NC(=O)Nc1ccc2[nH]nc(-c3ccc(N4CCOCC4)cc3)c2c1` [Example A86, 1-(2,6-diethylphenyl)-3-(3-(4-morpholinophenyl)-1H-indazol-5-yl)urea], the GI50 in experiment [1] (setting [3]) is 100 to 500 nM; in experiment [2] (setting [4]), below 100 nM.
`Cc1ccccc1C(NC(=O)c1ccc2[nH]nc(-c3ccc(OC4CCN(C)CC4)cc3)c2c1)C(C)C` (centres unmarked) [Example A143, N-(2-methyl-1-(o-tolyl)propyl)-3-(4-((1-methylpiperidin-4-yl)oxy)phenyl)-1H-indazole-5-carboxamide]: the GI50 in experiment [1] (setting [3]) and in experiment [2] (setting [4]) was 100 to 500 nM in each case.
For the compound `O=C(N[C@@H](c1ccccn1)C1CC1)c1ccc2[nH]nc(-c3ccc(OC4CCN(C5COC5)CC4)cc3)c2c1` [Example A196, (R)-N-(cyclopropyl(pyridin-2-yl)methyl)-3-(4-((1-(oxetan-3-yl)piperidin-4-yl)oxy)phenyl)-1H-indazole-5-carboxamide], the GI50 in experiment [1] (setting [3]) and in experiment [2] (setting [4]) was below 100 nM in each case.
Regarding `O=C(Nc1ccc2[nH]nc(-c3ccc(N4CCC(O)CC4)cc3)c2c1)C(c1ccccc1)C1CC1` (centres unmarked) [Example A103, 2-cyclopropyl-N-(3-(4-(4-hydroxypiperidin-1-yl)phenyl)-1H-indazol-5-yl)-2-phenylacetamide], the GI50 in experiment [1] (setting [3]) and in experiment [2] (setting [4]) was below 100 nM in each case.
With `CCc1cccc(CC)c1NC(=O)Nc1ccc2[nH]nc(-c3ccc4c(c3)CN(C)CCO4)c2c1` [Example A114, 1-(2,6-diethylphenyl)-3-(3-(4-methyl-2,3,4,5-tetrahydrobenzo[f][1,4]oxazepin-7-yl)-1H-indazol-5-yl)urea], the GI50 in experiment [1] (setting [3]) and in experiment [2] (setting [4]) was above 500 nM each time.
On to `COC1CCN(c2ccc(-c3n[nH]c4ccc(NC(=O)C(c5ccsc5)N5CCCC5)cc34)cc2)CC1` (centres unmarked) [Example A116, N-(3-(4-(4-methoxypiperidin-1-yl)phenyl)-1H-indazol-5-yl)-2-(pyrrolidin-1-yl)-2-(thiophen-3-yl)acetamide], for which the GI50 in experiment [1] (setting [3]) and in experiment [2] (setting [4]) was 100 to 500 nM throughout.
In the case of `CCC(NC(=O)c1ccc2[nH]nc(-c3ccc(OC4CCN(CCOC)CC4)cc3)c2c1)c1ccccc1` (centres unmarked) [Example A153, 3-(4-((1-(2-methoxyethyl)piperidin-4-yl)oxy)phenyl)-N-(1-phenylpropyl)-1H-indazole-5-carboxamide], the GI50 in experiment [1] (setting [3]) and in experiment [2] (setting [4]) was 100 to 500 nM throughout.
As for `CN1CCC(Oc2ccc(-c3n[nH]c4ccc(NC(=O)C(c5ccsc5)N5CCCC5)cc34)cc2N(C)C)CC1` (centres unmarked) [Example A113, N-(3-(3-(dimethylamino)-4-((1-methylpiperidin-4-yl)oxy)phenyl)-1H-indazol-5-yl)-2-(pyrrolidin-1-yl)-2-(thiophen-3-yl)acetamide], the GI50 in experiment [1] (setting [3]) and in experiment [2] (setting [4]) was below 100 nM throughout.
